Laboratory results published in patent EP2787001A1, “(E)-3-Aryl-3-oxoprop-1-enyl-2-phosphonic acid and its derivatives, methods for their preparation and their use” (Centrum Badan Molekularnych I Makromolekularnych Polskiej …, priority 2013, dated 2014).

Assays:
[1] = test system: DNA plasmid pcDNA 3.1 HisC (8.2 kb); experiment: Digestion of plasmid DNA with restriction enzyme Bam H1 after incubation with compounds (agarose gel electrophoresis); assay type: biochemical; details: compound 2 or 20 µM, overnight incubation at 37°C, then BamH1 2U/sample for 3 hours at 37°C; gel not shown
Method: The impact of compounds 1a and 1b has been tested on the digestion of DNA plasmid pcDNA 3.1 HisC (8.2 kb) with restriction enzyme Bam H1.
1. For this purpose, pcDNA 3.1 HisC plasmid DNA (0.6 µg) was dissolved in 1×BamH1 buffer and incubated overnight at 37°C with the following reference or test compounds:
The concentration of the reference and test compounds in each sample was 2 or 20 µM.
2. After overnight incubation, the reaction mixture was digested with BamH1 restriction enzyme (2U/sample) for 3 hours at 37°C. The total volume of the samples was 10 µL.
3. The reaction products were applied on 1% agarose gel and electrophoresis was performed in TAE buffer.

[2] = test system: synthetic DNA duplex (23 nt- 5'TCTTCAAGAATTCAGGTCCTGAT 3'); experiment: Circular dichroism (CD) spectra of DNA with test compounds; assay type: binding; details: DNA duplex 2µM, compound 20µM, 0.2% DMSO, PBS, 23°C, immediately after addition
Method: The ability of the test compounds 1a and 1b to interact with DNA was tested by the circular dichroism (CD) technique.
1. For this purpose, samples were prepared in PBS buffer containing: 2µM of synthetic DNA duplex (23 nt- 5'TCTTCAAGAATTCAGGTCCTGAT 3') or DNA of bovine thymus (0.2 mg/ml) and test compounds at a concentration of 20µM or 40µM for synthetic DNA duplex sample and thymus DNA sample, respectively. The samples contained 0.2% or 0.4% DMSO (for synthetic DNA duplex sample and thymus DNA sample, respectively), which is a solvent of the test compounds.
2. CD spectra (in the range from 200 nm to 320 nm) were recorded immediately after addition of the test compounds as well as after 1.5 h incubation. The measurement was carried out at 23°C in a quartz cuvette (optical path length 0.5 cm) using a spectroscope CD6 (Jobin-Yvon, France).
3. CD spectra of DNA incubated with the test compounds were compared with the control spectrum (spectrum was recorded for a sample of DNA (2µM or 0.2 mg/ml) in the presence of DMSO (final concentration of 0.2% or 0.4%).

SMILES	interaction with plasmid DNA: resistance to digestion by the endonucleolytic enzyme Bam H1 [1]	change of CD spectrum of duplex DNA compared to the control (duplex DNA + DMSO) [2]
COP(=O)(OC)/C(=C/c1ccc2ccc3cccc4ccc1c2c34)C(=O)c1ccc2c(c1)OCO2 [Compound 1a]	increasing its resistance to digestion	changes compared to the control sample
O=C(/C(=C/c1ccc2ccc3cccc4ccc1c2c34)P(=O)(O)O)c1ccc2c(c1)OCO2 [Compound 1b, (Z)-3-(benzo[d][1,3]dioxol-5-yl)-1-(pyrene-1-yl)-3-oxoprop-1-en-2-ylphosphonic acid]	increasing its resistance to digestion	changes compared to the control sample
COc1cccc2c1C(=O)c1c(O)c3c(c(O)c1C2=O)C[C@@](O)(C(C)=O)C[C@@H]3O[C@H]1C[C@H](N)[C@H](O)[C@H](C)O1 [Daunorubicin, reference compound]	increasing its resistance to digestion	changing significantly its structure
